Like-named read-outs stand apart in the source and are kept apart here.
Legend:
[1] = tested on: Key Broadleaf Weed and Crop Species; assay: Post-emergent Test II herbicidal activity (Table 15); assay type: in vivo; conditions: post-emergence, 336 h, 14 d; for pest or weed control at 35 g/ha: 35 g ai/ha; for pest or weed control at 70 g/ha: 70 g ai/ha; for pest or weed control at 140 g/ha: 140 g ai/ha
Summary of the method: (§1)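 Post-emergence spray; seedlings 7-21 d old, 1st-2nd true leaf; 187 L/ha; serial rates 1×-1/16×; solvent blank controls; subirrigated; visual % injury at 14 d.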

[2] = tested on: Key Grass and Sedge Weeds as well as Grass Crops; assay: Post-emergent Test II herbicidal activity (Table 16); assay type: in vivo; conditions: post-emergence, 336 h, 14 days after application; for pest or weed control at 35 g/ha: 35 g ai/ha; for pest or weed control at 70 g/ha: 70 g ai/ha; for pest or weed control at 140 g/ha: 140 g ai/ha
Summary of the method: as §1

[3] = Abutilon theophrasti, velvetleaf (Abutilon theophrasti), read-out: Visual Growth Reduction (%) 14 Days After Application, ABUTH
[4] = Amaranthus retroflexus, redroot pigweed (Amaranthus retroflexus), read-out: Visual Growth Reduction (%) 14 Days After Application, AMARE
[5] = Brassica napus, oilseed rape, canola (Brassica napus), read-out: Visual Growth Reduction (%) 14 Days After Application, BRSNN
[6] = Chenopodium album, lambsquarters (Chenopodium album), read-out: Visual Growth Reduction (%) 14 Days After Application, CHEAL
[7] = Euphorbia heterophylla, wild poinsettia (Euphorbia heterophylla), read-out: Visual Growth Reduction (%) 14 Days After Application, EPHHL
[8] = Helianthus annuus, sunflower (Helianthus annuus), read-out: Visual Growth Reduction (%) 14 Days After Application, HELAN
[9] = Cyperus esculentus, yellow nutsedge (Cyperus esculentus), read-out: Visual Growth Reduction (%) 14 Days After Application CYPES
[10] = Echinochloa crus-galli, barnyardgrass (Echinochloa crus-galli), read-out: Visual Growth Reduction (%) 14 Days After Application ECHCG
[11] = Oryza sativa, rice (Oryza sativa), read-out: Visual Growth Reduction (%) 14 Days After Application ORYSA
[12] = Setaria faberi, giant foxtail (Setaria faberi), read-out: Visual Growth Reduction (%) 14 Days After Application SETFA
[13] = Triticum aestivum, wheat, spring (Triticum aestivum), read-out: Visual Growth Reduction (%) 14 Days After Application TRZAS
[14] = Zea mays, maize, corn (Zea mays), read-out: Visual Growth Reduction (%) 14 Days After Application ZEAMX

Structure (SMILES): COC(=O)c1nc(-c2ccc3scnc3c2)c(F)c(N)c1Cl [Compound 6.01, Methyl 4-amino-6-(benzo[d]thiazol-5-yl)-3-chloro-5-fluoropicolinate]
- pest or weed control at 35 g/ha [1, 3]: 85 to 94%
- pest or weed control at 70 g/ha [1, 3]: 85 to 94%
- pest or weed control at 140 g/ha [1, 3]: 85 to 94%
- pest or weed control at 35 g/ha [1, 4]: 85 to 94%
- pest or weed control at 70 g/ha [1, 4]: 95 to 100%
- pest or weed control at 140 g/ha [1, 4]: 95 to 100%
- pest or weed control at 35 g/ha [1, 5]: 95 to 100%
- pest or weed control at 70 g/ha [1, 5]: 95 to 100%
- pest or weed control at 140 g/ha [1, 5]: 95 to 100%
- pest or weed control at 35 g/ha [1, 6]: 95 to 100%
- pest or weed control at 70 g/ha [1, 6]: 95 to 100%
- pest or weed control at 140 g/ha [1, 6]: 95 to 100%
- pest or weed control at 35 g/ha [1, 7]: 0 to 29%
- pest or weed control at 70 g/ha [1, 7]: 85 to 94%
- pest or weed control at 140 g/ha [1, 7]: 95 to 100%
- pest or weed control at 35 g/ha [1, 8]: 85 to 94%
- pest or weed control at 70 g/ha [1, 8]: 85 to 94%
- pest or weed control at 140 g/ha [1, 8]: 85 to 94%
- pest or weed control at 35 g/ha [2, 9]: 45 to 59%
- pest or weed control at 70 g/ha [2, 9]: 45 to 59%
- pest or weed control at 140 g/ha [2, 9]: 45 to 59%
- pest or weed control at 35 g/ha [2, 10]: 0 to 29%
- pest or weed control at 70 g/ha [2, 10]: 45 to 59%
- pest or weed control at 140 g/ha [2, 10]: 60 to 74%
- pest or weed control at 35 g/ha [2, 11]: 0 to 29%
- pest or weed control at 70 g/ha [2, 11]: 0 to 29%
- pest or weed control at 140 g/ha [2, 11]: 0 to 29%
- pest or weed control at 35 g/ha [2, 12]: 0 to 29%
- pest or weed control at 70 g/ha [2, 12]: 0 to 29%
- pest or weed control at 140 g/ha [2, 12]: 0 to 29%
- pest or weed control at 35 g/ha [2, 13]: 0 to 29%
- pest or weed control at 70 g/ha [2, 13]: 0 to 29%
- pest or weed control at 140 g/ha [2, 13]: 0 to 29%
- pest or weed control at 35 g/ha [2, 14]: 0 to 29%
- pest or weed control at 70 g/ha [2, 14]: 0 to 29%
- pest or weed control at 140 g/ha [2, 14]: 0 to 29%
- melting point: 216 °C

From patent publication US20170050957A1, “4-AMINO-6-(HETEROCYCLIC)PICOLINATES AND 6-AMINO-2-(HETEROCYCLIC)PYRIMIDINE-4-CARBOXYLATES AND THEIR USE AS HERBICIDES” (Dow AgroSciences LLC, priority 2013, published 2017)
